From patent US20130143969A1 (THE OHIO STATE UNIVERSITY, priority 2010, published 2013)

Columns and labels:
[1] = system: MV4-11 cells; experiment: Cell cycle distribution by flow cytometry; format: cell-based; settings: 10 μM curcumin, 48 hour
Experimental: (§1) Cell Cycle and Apoptosis Analysis: MV4-11, ML-1, HL-60 and K562 leukemia cell lines were cultured in RPMI medium (VWR International, Inc., West Chester, Pa.) supplemented with 10% fetal bovine serum (Invitrogen, Carlsbad, Calif.) and 1% (v/v) penicillin/streptomycin (Invitrogen Life Technologies; Carlsbad, Calif.) antibiotic solution at 37° C. in an incubator under 5% CO2 atmosphere. For the ex-vivo studies, mononuclear cells obtained from bone marrow (BM) of patient with AML were prepared by Ficoll-Hypaque (Nygaard) gradient centrifugation and cultured with serum-free expansion medium (SFEM) (StemCell technologies, Vancouver, BC) supplemented with GM-CSF (50 ng/ml), IL-3 (20 ng/ml), IL-6 (20 ng/ml) and SCF ([…]). […] The cell cycle and apoptosis of MV4-11 cells was analyzed on a BD FACS Calibur (Beckman Coulter, Fullerton, Calif.) according to the standard protocol provided by the manufacturer.

[2] = system: DNMT3a; experiment: Quantitative RT-PCR of DNMT3a mRNA in MV4-11 cells; format: cell-based; settings: 10 μM
Experimental: as §1
(§2) Quantitative RT-PCR was used to quantify the mRNA levels of DNMT1, DNMT3a, DNMT3b, p15INK4B and p21. […] Quantitative real-time PCR reactions were performed in triplicate using Taqman gene expression assay (Applied Biosystems) with an ABI prism 7700 detector (Applied Biosystems). The target gene values were normalized to the values of internal control GAPDH or 18 S, and expressed as relative percent change (100×2^(˜ΔΔCt)) over non-treated samples.

[3] = system: DNMT3b; experiment: Quantitative RT-PCR of DNMT3b mRNA in MV4-11 cells; format: cell-based; settings: 10 μM
Experimental: as §1, §2

[4] = system: K562; experiment: Cytotoxicity; format: cell-based; settings: Homo sapiens
[5] = rats, orally administered; cited from earlier work
[6] = system: MV4-11 cells; experiment: Cell viability / anti-proliferation; format: cell-based
[7] = in vivo; settings: CD2F1, mouse, in vivo
Source text: Extracts of bio-matrices were subjected to HPLC mass spectrometric analysis.

[8] = system: DNMT3a; experiment: Western blot of DNMT3a protein in MV4-11 cells; format: cell-based
Experimental: Cell Cycle and Apoptosis Analysis: MV4-11, ML-1, HL-60 and K562 leukemia cell lines were cultured in RPMI medium (VWR International, Inc., West Chester, Pa.) supplemented with 10% fetal bovine serum (Invitrogen, Carlsbad, Calif.) and 1% (v/v) penicillin/streptomycin (Invitrogen Life Technologies; Carlsbad, Calif.) antibiotic solution at 37° C. in an incubator under 5% CO2 atmosphere. […] The cell cycle and apoptosis of MV4-11 cells was analyzed on a BD FACS Calibur (Beckman Coulter, Fullerton, Calif.) according to the standard protocol provided by the manufacturer.
Cells or tumor tissues were homogenized and lysed in ice-cold lysis buffer (20 mM, pH 7.0 HEPES, 150 mM NaCl, 0.1% NP40 supplemented with 1 mM β-glycerophosphate, 1 mM Na3VO4, 1 mM NaF, 1 mM benzamide and 1 mM phenylmethylsulfonyl fluoride) with protease inhibitors (Protease Inhibitor cocktail Set III, Calbiochem-Novabiochem Corporation, La Jolla, Calif.), and incubated on ice for 20 mM. […] The immunoblotted proteins were detected by ECL reagent (GE Healthcare Bio-Sciences Corp., Piscataway, N.J.).

[9] = system: HL-60 cells; experiment: Cell viability / anti-proliferation; format: cell-based
[10] = Stability of curcumin in reconstituted solution in auto-sampler at 4° C; format: physicochemical; settings: auto-sampler 4° C, up to 8 hours
Source text: Therefore, all mouse blood and plasma samples have to be processed on ice to avoid potential degradation for its pharmacokinetic studies.

[11] = system: MV4-11 cells; experiment: Apoptosis analysis; format: cell-based; settings: 10 μM curcumin
Experimental: as §1

[12] = system: p15^INK4B; experiment: Quantitative RT-PCR of p15INK4B mRNA in leukemia cells; format: cell-based; settings: for increase of p15INK4B expression level: MV4-11 cells, 10 μM curcumin
Experimental: as §1
(§3) Quantitative RT-PCR was used to quantify the mRNA levels of DNMT1, DNMT3a, DNMT3b, p15INK4B and p21. Total RNA was extracted with Trizol reagent (Invitrogen, Carlsbad, Calif.) and reverse transcribed by reverse transcriptase (Invitrogen). Quantitative real-time PCR reactions were performed in triplicate using Taqman gene expression assay (Applied Biosystems) with an ABI prism 7700 detector (Applied Biosystems). The target gene values were normalized to the values of internal control GAPDH or 18 S, and expressed as relative percent change (100×2^(˜ΔΔCt)) over non-treated samples.

[13] = Solubility of curcumin in different PEGs and temperatures; format: physicochemical
Experimental: The pharmaceutical compositions may be prepared by dissolving solid curcumin in an excipient. […] In one embodiment, the mixture is stirred at an elevated temperature until a homogenous solution is obtained. For example, the mixture may be heated to a temperature within the range from about 30° C. to about 150° C.; from about 50° C. to about 120° C.; from about 60° C. to about 100° C. […]

[14] = system: DNMT1; experiment: DNMT1 mRNA and protein in MV4-11 engrafted tumor tissues; format: in vivo; settings: MV4-11 engrafted mice, curcumin i.p. 100 mg/kg
Experimental: Cells or tumor tissues were homogenized and lysed in ice-cold lysis buffer (20 mM, pH 7.0 HEPES, 150 mM NaCl, 0.1% NP40 supplemented with 1 mM β-glycerophosphate, 1 mM Na3VO4, 1 mM NaF, 1 mM benzamide and 1 mM phenylmethylsulfonyl fluoride) with protease inhibitors (Protease Inhibitor cocktail Set III, Calbiochem-Novabiochem Corporation, La Jolla, Calif.), and incubated on ice for 20 mM. The lysate was centrifuged at 12,000 g for […] at 4° C. Proteins in the supernatants were resolved on 4-15% SDS-polyacrylamide gradient gels, and then transferred onto nitrocellulose membranes, incubated with appropriate antibodies and subjected to Western blotting. The immunoblotted proteins were detected by ECL reagent (GE Healthcare Bio-Sciences Corp., Piscataway, N.J.).
as §3, with “samples. […]” for “samples.”

With `COc1cc(/C=C/C(=O)CC(=O)/C=C/c2ccc(O)c(OC)c2)ccc1O` [curcumin] the “cell population in G0/G1 phase” value [1] was 52.0%, the “cell population in G2/M phase” value [1] was 8.0% and the “cell population in S phase” value [1] was 16.1%. The “cell population in SubG1 phase” value [1] was 24.9%, the “DNMT3a mRNA level, % of the control” value ([2]; 48 h) was 50% and the “DNMT3a mRNA level, % of the control” value ([2]; 72 h) was 20%. The “DNMT3b mRNA level, % of the control” value ([3]; 48 h) was 40%, the “DNMT3b mRNA level, % of the control” value ([3]; 72 h) was 10% and the IC50 [4] was 10.4 µM. For the same compound, the “elimination half-life (T1/2)” value [5] was 1.7 ± 0.5 h, the IC50 ([6]; Homo sapiens, MV4-11) was 10 to 15 µM and the “cell viability decreased to” value ([6]; MV4-11 cells (FIG. 13B)) was 60-70%. The concentration at 10 min [7] was 1620 ng/mL, the concentration at 20 min [7] was 1620 ng/mL and the concentration at 30 min [7] was 2450 ng/mL. The concentration at 45 min [7] was 661 ng/mL, the concentration at 60 min [7] was 448 ng/mL and the concentration at 90 min [7] was 135 ng/mL. The concentration at 120 min [7] was 231 ng/mL, the concentration at 240 min [7] was 169 ng/mL and the concentration at 480 min [7] was 58.3 ng/mL. For the same compound, the “DNMT3a protein level reduction” value [8] was 50%, the “cell viability decreased to” value ([9]; HL-60 cells (FIG. 13B)) was 60-70% and the IC50 ([9]; Homo sapiens, HL-60) was 10 to 15 µM. For the same compound, the “% of original concentrations remaining” value [10] was over 85%, the “portion of apoptotic cells” value [11] was about 30% and the p15INK4B reactivation ([12]; AML primary blast cells) was “reactivated”. For the same compound, the p15INK4B reactivation ([12]; HL-60 leukemia cells) was “reactivated”, the “increase of p15INK4B expression level” value ([12]; 48 hours) was “approximately 12 fold” and the “increase of p15INK4B expression level” value ([12]; 72 hours) was about 43 fold. For the same compound, the “amount of curcumin that can dissolve” value ([13]; in 1 mL PEG 400 at 100° C) was “about 200 mg”, the “Final Conc. 100° C.” value ([13]; solubility in PEG 200, 100° C) was 193.1 mg/mL and the “Final Conc. 100° C.” value ([13]; solubility in PEG 300, 100° C) was 252.3 mg/mL. The “Final Conc. 60° C.” value ([13]; solubility in PEG 400, 60° C) was 131.4 mg/mL, the “Final Conc. 100° C.” value ([13]; solubility in PEG 400, 100° C) was 195 mg/mL and the “Final Conc. @ RT” value ([13]; solubility in PEG 400, RT) was 42.7 mg/mL. The “Final Conc. 100° C.” value ([13]; solubility in PEG 500, 100° C) was 218.9 mg/mL, the “Final Conc. 60° C.” value ([13]; solubility in PEG 600, 60° C) was 136.0 mg/mL and the “Final Conc. 100° C.” value ([13]; solubility in PEG 600, 100° C) was 241.8 mg/mL. The “Final Conc. @ RT” value ([13]; solubility in PEG 600, RT) was 42.0 mg/mL, the “mRNA level of DNMT1 in engrafted tissues” value [14] was “significantly decreases” and the “protein level of DNMT1 in engrafted tissues, decrease” value [14] was 50%.
